# Assays:
# Type in all cases: in vivo
# Amaranthus retroflexus [1] = assay: Example B1 herbicidal action, post-emergence, seed trays in climatic chamber (score 10=total damage to plant, 0=no damage to plant); conditions: Application post-emergence, 1000 g/ha, evaluated after 9 days
# Protocol: (§1) Seeds of a variety of test species were sown in sterilised standard soil in seed trays each having 96 cells. After cultivation for 8 to 9 days cultivation (post-emergence) under controlled conditions in a climatic chamber (cultivation at 23/17° C., day/night; 13 hours light; 50-60% humidity), the plants were treated with an aqueous spray solution of 1000 mg/l of the active ingredient dissolved in 10% DMSO (dimethyl sulfoxide, CAS RN 67-68-5) as a solvent, equivalent to 1000 g/ha. The plants were grown in the climatic chamber after application at (24/19° C., day/night; 13 hours light; 50-60% humidity) and watered twice daily. After 9 days until the test was evaluated (10=total damage to plant, 0=no damage to plant)
# Nasturtium officinale = assay: as above; conditions: Application post-emergence, 1000 g/ha, evaluated after 9 days
# Protocol: as §1
# Solanum nigrum [2] = assay: as above; conditions: Application post-emergence, 1000 g/ha, evaluated after 9 days
# Protocol: as §1
# Stellaria media = assay: as above; conditions: Application post-emergence, 1000 g/ha, evaluated after 9 days
# Protocol: as §1
# Amaranthus retroflexus [3] = assay: Example B2 herbicidal action, post-emergence, pots in glasshouse, evaluated after 13 days (10=total damage to plant; 0=no damage to plant); conditions: rate 1000 g/ha
# Protocol: (§2) Seeds of a variety of test species were sown in standard soil in pots. After 8 days cultivation (post-emergence) under controlled conditions in a glasshouse (at 24/16° C., day/night; 14 hours light; 65% humidity), the plants were sprayed with an aqueous spray solution derived from the formulation of the technical active ingredient in acetone/water (50:50) solution containing 0.5% Tween 20 (polyoxyethelyene sorbitan monolaurate, CAS RN 9005-64-5). The test plants were then grown in a glasshouse under controlled conditions in a glasshouse (at 24/16° C., day/night; 14 hours light; 65% humidity) and watered twice daily. After 13 days, the test was evaluated (10=total damage to plant; 0=no damage to plant).
# Echinochloa crus-galli = assay: as above; conditions: rate 1000 g/ha
# Protocol: as §2
# Ipomea hederaceae = assay: as above; conditions: rate 1000 g/ha
# Protocol: as §2
# Setaria faberi = assay: as above; conditions: rate 1000 g/ha
# Protocol: as §2
# Solanum nigrum [4] = assay: as above; conditions: rate 1000 g/ha
# Protocol: as §2
SMILES,AMARE (damage to plant) (Amaranthus retroflexus [1]),NAAOF (damage to plant) (Nasturtium officinale),SOLNI (damage to plant) (Solanum nigrum [2]),STEME (damage to plant) (Stellaria media),AMARE damage score (10=total damage to plant; 0=no damage to plant) (Amaranthus retroflexus [3]),ECHCG damage score (10=total damage to plant; 0=no damage to plant) (Echinochloa crus-galli),IPOHE damage score (10=total damage to plant; 0=no damage to plant) (Ipomea hederaceae),SETFA damage score (10=total damage to plant; 0=no damage to plant) (Setaria faberi),SOLNI damage score (10=total damage to plant; 0=no damage to plant) (Solanum nigrum [4])
"CC(C)(C)C(=O)Oc1c(-c2c(F)ccc(F)c2Cl)c(=O)n(CC(F)F)c2nccnc12 [A2, 2,2-dimethyl-propionic acid 7-(2-chloro-3,6-difluoro-phenyl)-5-(2,2-difluoro-ethyl)-6-oxo-5,6-dihydro-pyrido[2,3-b]pyrazin-8-yl ester]",4,9,6,9,,,,,
"O=c1c(-c2c(F)ccc(F)c2Cl)c(O)c2nccnc2n1CC(F)F [B2, 7-(2-chloro-3,6-difluoro-phenyl)-5-(2,2-difluoro-ethyl)-8-hydroxy-5H-pyrido[2,3-b]pyrazin-6-one]",6,8,5,8,,,,,
O=c1c(-c2c(F)ccc(Br)c2Cl)c(O)c2nccnc2n1CC(F)F [B6],,,,,10,8,10,8,10
CC(C)(C)C(=O)Oc1c(-c2cc(F)c(F)cc2Cl)c(=O)n(CC(F)F)c2nccnc12 [A33],,,,,10,4,7,7,10
CC(C)(C)C(=O)Oc1c(-c2c(F)ccc(F)c2Cl)c(=O)n(CCC(F)=C(F)F)c2nccnc12 [C12],,,,,6,0,1,0,3
"CC(C)(C)C(=O)Oc1c(-c2c(F)ccc(F)c2Cl)c(=O)n(CC(F)(F)F)c2nccnc12 [C8, 2,2-dimethyl-propionic acid 7-(2-chloro-3,6-difluoro-phenyl)-5-(2,2,2-trifluoro-ethyl)-6-oxo-5,6-dihydro-pyrido[2,3-b]pyrazin-8-yl ester]",,,,,10,1,10,4,10
CC(C)C(=O)Oc1c(-c2c(Cl)cccc2C(F)(F)F)c(=O)n(CC(F)F)c2nccnc12 [A41],,,,,10,8,9,9,10
O=c1c(-c2c(F)ccc(Cl)c2Cl)c(O)c2nccnc2n1CC(F)F [B14],,,,,10,6,10,7,10
CC(C)(C)C(=O)Oc1c(-c2ccccc2OC(F)F)c(=O)n(CC(F)F)c2nccnc12 [A28],,,,,9,1,8,3,10
"CC(C)(C)C(=O)Oc1c(-c2c(F)ccc(F)c2Cl)c(=O)n(CCF)c2nccnc12 [C9, 2,2-dimethyl-propionic acid 7-(2-chloro-3,6-difluoro-phenyl)-5-(2-fluoro-ethyl)-6-oxo-5,6-dihydro-pyrido[2,3-b]pyrazin-8-yl ester]",,,,,7,0,5,0,4
CCc1ccccc1-c1c(OC(=O)C(C)C)c2nccnc2n(CC(F)F)c1=O [A45],,,,,10,5,9,8,10
CC(C)(C)C(=O)Oc1c(-c2c(F)ccc(F)c2Cl)c(=O)n(CCC=C(F)F)c2nccnc12 [C11],,,,,5,0,0,0,2
O=C1c2nccnc2N(CC=C(Cl)Cl)C(=O)C1c1c(F)ccc(F)c1Cl (centres unmarked) [D3],,,,,9,0,7,3,7
"O=c1c(-c2c(Cl)ccc(Cl)c2Cl)c(O)c2nccnc2n1CC(F)F [B11, 5-(2,2-difluoro-ethyl)-8-hydroxy-7-(2,3,6-trichloro-phenyl)-5H-pyrido[2,3-b]pyrazin-6-one]",,,,,10,8,10,9,10
O=C1c2nccnc2N(CC(F)(F)F)C(=O)C1c1c(F)ccc(F)c1Cl (centres unmarked) [D1],,,,,10,5,10,6,10
CC(C)(C)C(=O)Oc1c(-c2c(F)ccc(F)c2Cl)c(=O)n(CC=C(Cl)Cl)c2nccnc12 [C13],,,,,0,0,1,0,3
CC(C)(C)C(=O)Oc1c(-c2cc(C(F)(F)F)ccc2C(F)(F)F)c(=O)n(CC(F)F)c2nccnc12 [A43],,,,,10,8,9,9,9
CC(C)C(=O)Oc1c(-c2c(F)ccc(F)c2Cl)c(=O)n(CC=C(Cl)Cl)c2nccnc12 [C14],,,,,8,0,1,0,8
CC(C)(C)C(=O)Oc1c(-c2c(F)ccc(Br)c2Cl)c(=O)n(CC(F)F)c2nccnc12 [A19],,,,,10,7,9,8,10
COc1cccc(-c2c(OC(=O)C(C)(C)C)c3nccnc3n(CC(F)F)c2=O)c1OC [A16],,,,,8,3,7,8,10
CC(C)C(=O)Oc1c(-c2cc(F)ccc2Cl)c(=O)n(CC(F)F)c2nccnc12 [A13],,,,,10,8,10,9,10
COc1ccc(Br)cc1-c1c(O)c2nccnc2n(CC(F)F)c1=O [B12],,,,,9,6,6,6,9
COc1ccc(OC(F)(F)F)cc1-c1c(O)c2nccnc2n(CC(F)F)c1=O [B8],,,,,10,9,9,9,9

# — patent US8217055B2, “Pyrido-pyrazine derivatives useful as herbicidal compounds” (Syngenta Crop Protection LLC, priority 2006, dated 2012)
